The values that follow are results of earlier work, collected in patent US20190357582A1, “Methods For Inducing Adipocyte Browning, Improving Metabolic Flexibility, And Reducing Detrimental White Adipose Tissue Deposition And Dysfunction” (MEAD JOHNSON NUTRITION COMPANY, priority 2017, published 2019).

Each structure is given as a SMILES string.

This series has as its system UCP1. The conditions noted are these: positive control for browning.

With `COc1ccc2c(c1)[nH]c1c(C)nccc12` [Harmine], the browning activity entry is recorded as “browning activity”.
